The record followed here is PubChem BioAssay (NCI).

In general, TGI refers to the concentration at which net growth stops. A low value points to greater sensitivity of the cells. By GI50 is commonly meant the concentration giving 50% growth inhibition.

Among the test systems are SNB-75 CNS; NCI-H522 lung; MDA-MB-435; HL-60(TB) leukemia; NCI-H23 lung; HOP-62 NSCLC; RXF 393 renal; IGROV1 ovarian; HCC-2998 colon; SK-OV-3 ovarian.
Common to all, as to test: DTP human tumour cell line panel, 48 h

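Assay format: 96-well plates, 48-hour exposure. GI50 is the concentration that inhibits growth by half. TGI marks complete inhibition of growth.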

As to `CCOC(=O)/C(O)=C(/C=N\C(=S)Nc1ccccc1Cl)C(=O)OCC`, the TGI in the test with SNB-75 CNS, in the test on NCI-H522 lung, in the test on MDA-MB-435, in the test with HL-60(TB) leukemia, in the test on NCI-H23 lung and in the test with HOP-62 NSCLC was above 100 µM throughout. Besides, the TGI in the test on RXF 393 renal, in the test with IGROV1 ovarian, in the test with HCC-2998 colon and in the test on SK-OV-3 ovarian was above 100 µM throughout.

For the molecule `COc1ccc(/C=C(\Cl)c2ccc(OC)c(OC)c2)cc1OC`, the concentration for total growth inhibition (TGI) in the test on SNB-75 CNS, in the test on NCI-H522 lung, with MDA-MB-435, in the test with HL-60(TB) leukemia, with NCI-H23 lung and in the test on HOP-62 NSCLC was above 100 µM each time. In addition, the TGI with RXF 393 renal, with IGROV1 ovarian, in the test on HCC-2998 colon and in the test on SK-OV-3 ovarian was above 100 µM throughout.

For the molecule `O=C(O)C1CC2C3CCC2C1C3=O` (stereo not given), the TGI in the test on SNB-75 CNS, in the test on NCI-H522 lung, in the test on MDA-MB-435, in the test on HL-60(TB) leukemia, in the test with NCI-H23 lung and in the test with HOP-62 NSCLC was above 100 µM in each case. Besides, the TGI in the test on RXF 393 renal, in the test with IGROV1 ovarian, with HCC-2998 colon and in the test with SK-OV-3 ovarian was above 100 µM each time.

On to `COc1ccc2c(c1)CC[C@@H]1[C@@H]2CC[C@]2(C)C(=O)C3(CCCCC3)C[C@@H]12`, for which the GI50 in the test with SNB-75 CNS, in the test on NCI-H522 lung, in the test with MDA-MB-435, with HL-60(TB) leukemia, with NCI-H23 lung and with HOP-62 NSCLC was above 100 µM throughout. The GI50 with RXF 393 renal, in the test on IGROV1 ovarian, in the test on HCC-2998 colon and with SK-OV-3 ovarian was above 100 µM throughout. The TGI with SNB-75 CNS, in the test on NCI-H522 lung, with MDA-MB-435, with HL-60(TB) leukemia, in the test with NCI-H23 lung and in the test on HOP-62 NSCLC was above 100 µM in each case. The TGI with RXF 393 renal, in the test on IGROV1 ovarian, with HCC-2998 colon and in the test with SK-OV-3 ovarian was above 100 µM throughout.

On to `CN(C)c1ccc(-c2c(C#N)c(N)[nH]c(=S)c2C#N)cc1`, for which the concentration for total growth inhibition (TGI) with SNB-75 CNS, with NCI-H522 lung, in the test on MDA-MB-435, in the test with HL-60(TB) leukemia, in the test on NCI-H23 lung and with HOP-62 NSCLC was above 100 µM in each case. For the same molecule, the concentration for total growth inhibition (TGI) in the test with RXF 393 renal, in the test on IGROV1 ovarian, in the test on HCC-2998 colon and in the test on SK-OV-3 ovarian was above 100 µM in each case.
